This is an account of results in patent publication US7723370B2, “1, 2-diaryl pyrazoles useful as analgetic and antiinflammatory agents” (Richter Gedeon Vegyeszeti Gyar RT., priority 2005, dated 2010).

The subject of data set [1] is carrageenan induced paw oedema. The data set can be described thus: Inhibition of carrageenan induced oedema in rats. Conditions: for ED30: p.o. Type of data set: in vivo, rat. The method, then:
The treated paw was immersed up to the tibio-tarsal articulation into the chamber and the volume of displaced liquid was determined as the degree of the inflammation. Degree of inflammation (ml)=volume after the CARR treatment (ml)−volume before the CARR treatment (ml)
The degree of the anti-inflammatory effect of the treated group (which obtained test agent) was compared to that of the control group (which obtained only vehicle). The test compound and the vehicle were given orally by blunt-ended needle cannula one hour before the CARR treatment. The volume of the treated paw was measured at 3 and 5 hours after the CARR treatment and the change in the degree of inflammation in % was calculated according to the following formula: Anti-inflammatory activity %=100×[control group (ml)−treated group (ml)/control group (ml)]
[…] Anti-inflammatory activity of the compounds was determined in % at 4 and 6 hours after p.o. treatment and ED30 was calculated.
(In the carrageenan paw model, swelling and tenderness develop within hours.)

Data set [2] relates to carrageenan induced chronic hyperalgesia. The data set can be described thus: Carrageenan induced chronic hyperalgesia model in rats (Randall-Selitto). Type of data set: in vivo, rat. To be noted: chronic model, 30 mg/kg p.o. The method, then: (§1) Oedema (inflammation) was induced by subcutaneous injection of carrageenan (CARR) suspension in the subplantar region of the right hind paw of male Wistar rats, weighted 140-190 g (n=8-12 animal/group). The nociceptive thresholds of the inflamed hind paw after painful mechanical stimuli were measured with analgesimeter (Ugo Basile, type: 37215, Italy). The apparatus is suitable for the measuring of the extent and the latency of the pain reaction threshold of the sensitized paw after painful stimuli. The analgesics elevate the low pain reaction threshold of inflamed paw and the degree of its antinociceptive effect is expressed in reversal %.
(§2) An increasing pressure was applied to the paw and the withdrawal threshold was determined as the first sign (squeaking and/or struggling) of pain response. The pressure threshold was shown in grams. The average value of the hind paw withdrawal obtained with untreated right paw was regarded as the basal hind paw withdrawal (average 80-110 grams.) After determining the baseline threshold the animals received carrageenan injection that produced an intense inflammation associated with hyperalgesia. The mechanical threshold was determined at various times to establish the magnitude and duration of the hyperalgesia. The maximum reduction in threshold was measured 2-3 h after injection (the pain threshold of the inflamed paw is 20-30 g, which was decreased by 65-80% in comparing to the basic value).
(§3) Acute hvneralgesia model: the animals were treated with the test compounds and celecoxib (10 and 30 mg/kg p.o.) one hour after CARR treatment (100 μl 2% suspension). Pain threshold was measured at 2 and 4 hours after the treatment. Chronic hyperalgesia model: extended inflammation and decreased pain threshold were induced with higher dose of CARR. Pain threshold of inflamed paw was measured 24 hours after CARR treatment (150 μl, 2% suspension) then test compound and Celecoxib (30 mg/kg p.o.) were given to the animals. Pain threshold of treated paw was measured from 30 minutes till 3 hours after treatment.
(§4) Control groups in both models after CARR treatment were treated with vehicle p.o. at the same intervals as the test compounds. In both models the analgesic effect of the compounds was expressed in the reversal (%) of the decrease of the pain threshold. Reversal %=[mean of treated groupTxh(g)−treated groupT0h(g)]/[basic mean of treated groupT-1h(g)−treated groupT0h(g)] • T−1 h=mean of the pain threshold of paw before CARR treatment in acute model (g) • T0h=mean of the pain threshold before treatment 1 hour after CARR treatment in acute model (g) • T×h=pain threshold after CARR treatment in the measuring times (1 h, 2 h, 3 h) in acute model (g)

For data set [3], the system named is acetic acid induced chronic gastric ulcer. The data set can be described thus: Acetic acid induced chronic gastric ulcer in rats. Type of data set: in vivo, rat. As to the method:
In our experiments the method […] of Okabe et al was used. Male Wistar rats of 150-170 g were narcotize part of the stomach.
The test compound was given p.o. on the fifth day after the operation for seven days. The animals were euthanized with ether after 24 hours of the last dose and the abdomen was macroscopically examined (exravasation, accretion), the stomach was excised and the diameters of ulcers were measured.

Data set [4] concerns carrageenan induced acute hyperalgesia. The data set can be described thus: Carrageenan induced acute hyperalgesia in rats (Randall-Selitto model). Type of data set: in vivo, rat. As to the method:
as §1, §2, §3, §4

The test system of data set [5] is carrageenan induced chronic hyperalgesia. The data set can be described thus: Carrageenan induced chronic hyperalgesia model in rats (Randall-Selitto). Type of data set: in vivo, rat.
In data set [6] the test system is alcohol induced mucosa injury. The data set can be described thus: Gastric lesions induced by acidified alcohol in rats. Type of data set: in vivo, rat. Conditions: for Ulcer index: 40 minutes before ethanol+HCl, n = 10. As to the method: Male Wistar rats weighing 140-160 g were treated p.o. with a 1:0.02 mixture of dry ethanol and concentrated HCl (0.5 ml) in order to induce gastric lesions. One hour later the animals were euthanized with ether and the stomach excised along its greater curvature, the mucosa was examined for the presence of lesions.
Severity of lesions: • 1: petechiae or erosion with length of 1 mm • 2: erosion with length between 2 and 3 mm • 3: erosion with length between 3 and 4 mm • 4: erosion with length between 4 and 5 mm
If the lesion was longer than 5 mm, it was scored 4 point as many times as the total length of the lesion divisible by four and the rest of the length was evaluated according to the above scale. The degree of injury of mucosa was characterized by ulcer index. Ulcer index (severity of lesion×number of lesion) was calculated for every animal and the degree of injury of mucosa in the groups of tested animals was characterized by the mean of ulcer index of different groups of animals.
Test compounds were given p.o. 40 minutes before the ethanol+HCl treatment

Molecules are shown by their SMILES. Several values for one entry are separate records, joined by “and”; a condition that tells them apart may be missing. Equal values may be shown once. Marks after values point to notes of the source that are not given here.

For the molecule `Cc1ccc(-c2cc(C(F)(F)F)nn2-c2ccc(S(=O)(=O)NOC(C)C(=O)[O-])cc2)cc1.[Na+]` (racemic) [Example 6, Disodium (R,S)-2-[4-(5-p-methylphenyl-3-trifluoromethyl-pyrazol-1-yl)-benzenesulfonyl-aminooxy]-propionic acid monohydrate], in data set [1] (CARR induced oedema test), the “anti-inflammatory activity compared with celecoxib” value is on record as “significantly (p<0.05) higher”.

Regarding `Cc1ccc(-c2cc(C(F)(F)F)nn2-c2ccc(S(N)(=O)=O)cc2)cc1` [Celecoxib, reference compound], the “Inhibiton of carrageenan induced edema %” value in data set [1] (3 mg/kg p.o., 4 hours after treatment) is on record as 16 ± 3%; in data set [1] (3 mg/kg p.o., 6 hours after treatment) it was 12 ± 4%; in data set [1] (10 mg/kg p.o., 4 hours after treatment) it was 24 ± 4%; in data set [1] (10 mg/kg p.o., 6 hours after treatment) it was 18 ± 2%; in data set [1] (30 mg/kg p.o., 4 hours after treatment), 32 ± 5%; in data set [1] (30 mg/kg p.o., 6 hours after treatment) it was 26 ± 4%. Besides, the “anti-inflammatory activity as compared to the control group” value in data set [1] (6 hours after the treatment) is “less than 30%”. Besides, the ED30 was 23 mg/kg and 23.0 mg/kg in data set [1] (4 hours after treatment); above 30 mg/kg in data set [1] (6 hours after treatment). In addition, the “Analgesic effect (reversal %) after p.o. treatment” value in data set [2] (30 min) turned out to be 54%; in data set [2] (1 hour), 34%; in data set [2] (2 hour) it was 34%; in data set [2] (3 hour), 26%; in data set [4] (10 mg/kg p.o., 1 hour) it was 0%; in data set [4] (10 mg/kg p.o., 2 hour), 0%. In addition, the “Analgesic effect (reversal %) after p.o. treatment” value in data set [4] (10 mg/kg p.o., 3 hour) was 0%; in data set [4] (30 mg/kg p.o., 1 hour), 24%; in data set [4] (30 mg/kg p.o., 2 hour), 3%; in data set [4] (30 mg/kg p.o., 3 hour) it was 0%; in data set [5] (10 mg/kg p.o., 30 min) it was 24%; in data set [5] (10 mg/kg p.o., 1 hour), 17%. Further, the “Analgesic effect (reversal %) after p.o. treatment” value in data set [5] (10 mg/kg p.o., 2 hour) is on record as 0%; in data set [5] (30 mg/kg p.o., 4 hour), 20%. For the same molecule, the “analgesic effect, reversal” value in data set [2] (time not stated) was 54%; in data set [4] (30 mg/kg p.o., time not stated) it was 24%. Moreover, the “Area of ulcer (mm^2)” value in data set [3] (30 mg/kg p.o. for seven days) is 8.2 ± 2.0* mm^2. In addition, the “Change of bodyweight (g) + (increase) − (decrease)” value in data set [3] (30 mg/kg p.o. for seven days) is recorded as “+32 ± 4 g”. Also, the “Recovery of acetic acid induced ulcer” value in data set [3] (p.o. for seven days) is “inhibited significantly”. Also, the Ulcer index is reported as 80.6 ± 2.3 in data set [6] (15 mg/kg p.o.), 49.4 ± 4.5 in data set [6] (30 mg/kg p.o.) and 44.4 ± 6.4 in data set [6] (60 mg/kg p.o.). Also, in data set [6] (p.o.), the “effect on alcohol induced mucosa injury” value is “inhibited the alcohol induced mucosa injury”.

The melting point is the temperature of the solid-liquid transition. As to `Cc1ccc(-c2cc(C(F)(F)F)nn2-c2ccc(S(=O)(=O)NOCC(=O)O)cc2)cc1` [Example 7, [4-(5-p-methylphenyl-3-trifluoromethyl-pyrazol-1-yl)-benzenesulfonylaminooxy]-acetic acid], the melting point was 224 to 225 °C.

Molecule `CCOC(=O)CONS(=O)(=O)c1ccc(-n2nc(C(F)(F)F)cc2-c2ccc(C)cc2)cc1` [Example 8, [4-(5-p-methylphenyl-3-trifluoromethyl-pyrazol-1-yl)-benzenesulfonylaminooxy]-acetic acid ethyl ester] came in with a melting point of 143 to 144 °C.

Turning to `Cc1ccc(-c2cc(C(F)(F)F)nn2-c2ccc(S(=O)(=O)NOCCC(=O)O)cc2)cc1` [Example 9, 3-[4-(5-p-methylphenyl-3-trifluoromethyl-pyrazol-1-yl)-benzenesulfonylaminooxy]-propionic acid], the melting point was 176 to 178 °C.

The molecule `CCOC(=O)C(C)ONS(=O)(=O)c1ccc(-n2nc(C(F)(F)F)cc2-c2ccc(C)cc2)cc1` (stereo not drawn) [Example 10, 2-[4-(5-p-methylphenyl-3-trifluoromethyl-pyrazol-1-yl)-benzenesulfonylaminooxy]-propionic acid ethyl ester] displayed a melting point of 137 to 138 °C.

With `CC(=O)ONS(=O)(=O)c1ccc(-n2nc(C(F)(F)F)cc2-c2ccc(C)cc2)cc1` [Example 11, N-acetoxy-4-(5-p-methylphenyl-3-trifluoromethyl-pyrazol-1-yl)-benzenesulamide], the melting point lay within 138 to 140 °C.

`Cc1ccc(-c2cc(C(F)(F)F)nn2-c2ccc(S(=O)(=O)NOC(=O)c3ccccc3)cc2)cc1` [Example 12, N-benzoyloxy-4-(5-p-methylphenyl-3-trifluoromethyl-pyrazol-1-yl)-benzenesulfonamide] showed a melting point of 152 to 155 °C.

Molecule `Cc1ccc(-c2cc(C(F)(F)F)nn2-c2ccc(S(=O)(=O)NOC(=O)C(C)(C)C)cc2)cc1` [Example 13, N-pivaloyloxy-4-(5-p-methylphenyl-3-trifluoromethyl-pyrazol-1-yl)-benzenesulfonamide] returned a melting point of 134 to 136 °C.

Regarding `COc1ccc2c(c1)c(CC(=O)O)c(C)n2C(=O)c1ccc(Cl)cc1` [Indometacin], in data set [3] (2.0 mg/kg p.o. for seven days), the “Area of ulcer (mm^2)” value is recorded as 39.0 ± 5** mm^2 and the “Change of bodyweight (g) + (increase) − (decrease)” value is recorded as “+2 ± 0.6 g”.
